The subject of experiment [1] is ICR mice. Briefly: Passive avoidance test, scopolamine-induced dementia. Type of experiment: in vivo. As for the experimental part:
(§1) The deterioration of cognitive ability of Aβ1-42 (Amyloid Beta 1-42) was evaluated in 4-week-old male mice. ICR mice (Bio Link, Eumseong-gun, Chungbuk, Korea) were purchased, adapted to an experimental animal room for one week, and randomly consisted of 6 mice in each group. As experimental groups, a group administered with the Spirulina extract (hereinafter, SM70EE) produced by Example 1 by concentration and a group administered with chlorophyll a were used. As a control group, a group without treating a Spirulina extract, and as a comparative group, a group administered with scopolamine causing dementia and a group administered with donepezil as a dementia therapeutic agent were used. During the adaptation period, the feed and water were freely supplied without limitation, and the temperature of 22±2° C. and the humidity of 50±10% were maintained, and the contrast was adjusted to a period of 12 hours (09:00 to 21:00).
An avoidance box (40×20×20 cm) of a passive avoidance measuring device was divided into a light box and a dark box, and a door was installed between the rooms so that the experimental mice moved. […]
After 24 hours, the same test was conducted, and the escape latency time while the experimental mice moved was measured. […]

Experiment [2] concerns ICR mice. Briefly: Morris water maze test, scopolamine-induced dementia. It counts as in vivo. As to the method:
as §1, with “During the adaptation period, the feed and water were freely supplied without limitation, and the temperature of 22±2° C. and the humidity of 50±10% were maintained, and the contrast was adjusted to a period of 12 hours (09:00 to 21:00).” left out
In Experimental Example above, a passive avoidance analysis evaluation test was conducted by applying a Morris's method. […] For adaptation, only the swimming practice was performed for 60 seconds without a platform on the first day of the experiment, a test trial was performed for 4 days in the pool disposed with the platform from the second day, and then escape latency time which was time taken for experimental mice administered with a drug to escape on the platform was measured. […]

Consider `C=Cc1c(C)c2cc3nc(c4c5[n-]c(cc6nc(cc1[n-]2)C(C)=C6CC)c(C)c5C(=O)[C@@H]4C(=O)OC)[C@@H](CCC(=O)OC/C=C(\C)CCC[C@H](C)CCC[C@H](C)CCCC(C)C)[C@@H]3C.[Mg+2]` [chlorophyll a], for which the latency time result in the experiment with ICR mice [1] (10 mg/kg oral, scopolamine 1 mg/kg s.c., vs scopolamine group) is “increased”. The escape latency time result in the experiment with ICR mice [2] (10 mg/kg oral, scopolamine 1 mg/kg s.c.) is reported as “decreased”.
As to `CN1[C@@H]2C[C@@H](OC(=O)[C@H](CO)c3ccccc3)C[C@H]1[C@@H]1O[C@@H]12` [scopolamine], in the experiment on ICR mice [1] (scopolamine only, 1 mg/kg s.c., vs control group), the latency time result is “significantly reduced”. The escape latency time entry in the experiment on ICR mice [2] (scopolamine only, 1 mg/kg s.c.) was “increased”.

The record behind these values is US20220160798A1 (priority 2019, published 2022).
